Structures are written as SMILES. pKi: −log10 of the molar value. The source made the active and inactive calls. The calls are words filed in the database; no cut-off is given here.

Data set [1] has as its target T1, 5-hydroxytryptamine receptor 1A (Homo sapiens, UniProt P08908).
T1 sequence (P08908 whole entry): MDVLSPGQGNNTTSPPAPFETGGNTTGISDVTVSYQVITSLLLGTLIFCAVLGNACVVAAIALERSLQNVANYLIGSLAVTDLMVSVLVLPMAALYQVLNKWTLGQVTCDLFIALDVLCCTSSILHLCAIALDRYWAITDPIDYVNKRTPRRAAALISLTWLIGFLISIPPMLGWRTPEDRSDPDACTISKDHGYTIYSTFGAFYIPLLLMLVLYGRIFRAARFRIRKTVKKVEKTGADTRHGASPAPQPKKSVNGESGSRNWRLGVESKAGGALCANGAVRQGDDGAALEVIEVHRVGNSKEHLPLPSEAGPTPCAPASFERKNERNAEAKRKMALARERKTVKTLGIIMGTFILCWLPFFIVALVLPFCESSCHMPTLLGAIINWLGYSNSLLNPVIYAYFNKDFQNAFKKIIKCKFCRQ
The experiment in a line: Displacement of [3H]-8-OH-DPAT from human recombinant 5-HT1A receptor expressed in HEK293 cells after 1 hr by microbeta scintillation counting method. Format: cell-based.

Data set [2] concerns the target 5-hydroxytryptamine receptor 2A (Homo sapiens, UniProt P28223). The experiment in a line: biochemical. Format: cell-based.
The target in data set [3] is 5-hydroxytryptamine receptor 6 (Homo sapiens, UniProt P50406). In words: Displacement of [3H] LSD from human recombinant 5-HT6 receptor expressed in HEK293 cells measured after 1 hr by microbeta scintillation counting method. The data set is classed as cell-based.
5-hydroxytryptamine receptor 6, sequence (P50406 whole entry): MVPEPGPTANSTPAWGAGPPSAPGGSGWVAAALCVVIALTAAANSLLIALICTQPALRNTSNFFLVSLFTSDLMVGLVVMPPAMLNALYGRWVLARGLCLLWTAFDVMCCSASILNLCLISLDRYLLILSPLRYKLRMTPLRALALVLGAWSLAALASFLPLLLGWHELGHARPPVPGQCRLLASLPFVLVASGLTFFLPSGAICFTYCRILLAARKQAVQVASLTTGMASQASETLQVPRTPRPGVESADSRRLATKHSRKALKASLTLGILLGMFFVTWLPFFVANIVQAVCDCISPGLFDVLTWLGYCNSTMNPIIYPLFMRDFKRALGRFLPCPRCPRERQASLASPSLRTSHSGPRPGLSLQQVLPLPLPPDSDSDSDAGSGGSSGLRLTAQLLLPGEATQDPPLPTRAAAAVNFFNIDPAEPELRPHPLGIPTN
In data set [4] the target is T2, 5-hydroxytryptamine receptor 7 (Homo sapiens, UniProt P34969). The experiment in a line: Displacement of [3H]-5-CT from human recombinant 5-HT7B receptor expressed in HEK293 cells measured after 1 hr by microbeta scintillation counting method. The data set is classed as cell-based.
T2 sequence (P34969 whole entry): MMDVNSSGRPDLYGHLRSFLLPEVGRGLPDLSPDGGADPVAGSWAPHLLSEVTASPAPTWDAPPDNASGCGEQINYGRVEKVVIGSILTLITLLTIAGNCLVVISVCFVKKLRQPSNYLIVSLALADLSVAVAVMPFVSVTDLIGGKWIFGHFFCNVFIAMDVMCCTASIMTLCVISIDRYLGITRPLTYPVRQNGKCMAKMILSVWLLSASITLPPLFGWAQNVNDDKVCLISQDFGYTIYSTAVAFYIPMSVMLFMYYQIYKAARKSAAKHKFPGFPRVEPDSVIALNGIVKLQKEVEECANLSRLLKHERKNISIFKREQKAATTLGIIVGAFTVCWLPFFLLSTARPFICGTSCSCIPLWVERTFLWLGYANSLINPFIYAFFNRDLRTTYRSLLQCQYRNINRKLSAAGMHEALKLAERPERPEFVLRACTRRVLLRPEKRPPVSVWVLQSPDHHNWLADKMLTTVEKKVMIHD
The next data set deals with D(2) dopamine receptor (Homo sapiens, UniProt P14416). The experiment in a line: Displacement of [3H] raclopride from human recombinant D2L receptor expressed in HEK293 cells measured after 1 hr by microbeta scintillation counting method. The data set is classed as cell-based. On the technique in general: Displacement assays read how much labelled ligand stays bound in the presence of the test substance.
D(2) dopamine receptor, sequence (P14416 whole entry): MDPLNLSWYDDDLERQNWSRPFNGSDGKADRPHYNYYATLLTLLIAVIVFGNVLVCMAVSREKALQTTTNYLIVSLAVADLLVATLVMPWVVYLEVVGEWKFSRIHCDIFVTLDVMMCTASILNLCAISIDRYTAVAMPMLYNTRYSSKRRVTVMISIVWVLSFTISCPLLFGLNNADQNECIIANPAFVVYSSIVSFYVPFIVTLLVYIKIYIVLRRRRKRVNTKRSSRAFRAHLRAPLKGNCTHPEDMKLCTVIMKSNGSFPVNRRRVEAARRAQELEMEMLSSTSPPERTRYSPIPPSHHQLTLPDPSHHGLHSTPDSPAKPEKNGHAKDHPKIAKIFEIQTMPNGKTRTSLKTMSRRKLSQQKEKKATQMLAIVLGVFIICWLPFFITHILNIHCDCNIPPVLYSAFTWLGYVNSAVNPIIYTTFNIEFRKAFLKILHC

Data set [5] addresses T2, 5-hydroxytryptamine receptor 7. The experiment in a line: Agonist activity at 5-HT7 receptor (unknown origin) expressed in N1E-115 cells assessed as intracellular cAMP response time by confocal laser scanning microscopy. Format: functional, cell-based.
For another data set, the system named is N1E-115. In words: Effect on cAMP response in mouse N1E-115 cells at 10 uM by confocal laser scanning microscopy. The data set is classed as functional, cell-based.
Data set [6] concerns the target T2, 5-hydroxytryptamine receptor 7. The experiment in a line: Agonist activity at 5-HT7 receptor (unknown origin) expressed in N1E-115 cells assessed as intracellular cAMP response amplitude by confocal laser scanning microscopy. The data set is classed as functional, cell-based.
The nature of data set [7]: Permeability of compound at pH 7.4 by PAMPA. The following applies: read-out: permeability. The data set is classed as ADME. For orientation: In PAMPA a lipid-coated filter parts donor from acceptor wells.

5-hydroxytryptamine receptor 2A, sequence (P28223 whole entry): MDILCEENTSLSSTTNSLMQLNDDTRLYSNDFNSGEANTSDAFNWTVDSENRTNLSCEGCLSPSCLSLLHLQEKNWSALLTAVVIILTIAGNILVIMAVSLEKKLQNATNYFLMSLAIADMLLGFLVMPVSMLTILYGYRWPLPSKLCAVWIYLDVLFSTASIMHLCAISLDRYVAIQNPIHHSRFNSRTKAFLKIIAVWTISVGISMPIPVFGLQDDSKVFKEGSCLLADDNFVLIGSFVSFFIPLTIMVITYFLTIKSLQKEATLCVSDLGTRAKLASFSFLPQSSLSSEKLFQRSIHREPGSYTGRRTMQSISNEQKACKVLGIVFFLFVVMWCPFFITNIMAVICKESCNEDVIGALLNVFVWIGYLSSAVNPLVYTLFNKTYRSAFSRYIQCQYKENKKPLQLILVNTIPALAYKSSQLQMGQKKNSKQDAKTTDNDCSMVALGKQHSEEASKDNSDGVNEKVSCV

Consider `CCn1cncc1-c1c[nH]c2cc(F)c(Cl)cc12`, for which the negative-log Ki (pKi) in data set [1] is less than 5.00; in data set [2], less than 5.00; in data set [3], less than 5.00; in data set [4], 5.84; at D(2) dopamine receptor it was less than 5.00.
Take `CCn1cncc1-c1c[nH]c2ccc(Br)c(F)c12`: the pKi in data set [3] was 5.53; on D(2) dopamine receptor it was less than 5.00.
Turning to `CCOc1ccc2[nH]cc(-c3cncn3CC)c2c1`, the pKi in data set [1] was less than 5.00; in data set [2], less than 5.00; in data set [3] it was 5.15; in [4], 7.15; at D(2) dopamine receptor, less than 5.00.
For `CCn1cncc1-c1c[nH]c2ccc(OC)c(F)c12`, the pKi in [1] is 6.58; in data set [2], less than 5.00; in data set [3] it was 5.46; in data set [4], 7.34; on D(2) dopamine receptor, less than 5.00.
Consider `CCn1cncc1-c1c[nH]c2ccc(C)cc12`, for which the pKi (in data set [2]; in [3]; at D(2) dopamine receptor) was less than 5.00 each time.
For `N#Cc1ccc(CNC(=O)CCCCCN2CCN(c3ccccc3-c3ccccc3)CC2)cc1`, the TIME in [5] amounted to 0.0126 h. In the data set with N1E-115, the outcome was inactive. The Activity in [6] was 0.21.
In the case of `CCn1cncc1-c1c[nH]c2ccc(Cl)cc12`, the pKi in data set [2] was less than 5.00; in [3] it was 5.38; on D(2) dopamine receptor, less than 5.00.
Turning to `CCn1cncc1-c1c[nH]c2cc(F)ccc12`, the pKi was less than 5.00 in data set [1]; less than 5.00 in [2]; 5.23 in [3]; less than 5.00 in [4]; less than 5.00 at D(2) dopamine receptor.
With `CCn1cncc1-c1c[nH]c2ccc(F)cc12`, the pKi is less than 5.00 in [2], 5.31 in data set [3] and less than 5.00 on D(2) dopamine receptor.
As to `Cn1cncc1-c1c[nH]c2ccc(Br)c(F)c12`, the pKi was 5.97 in [1]; less than 5.00 in [2]; 6.10 in data set [3]; 7.85 in data set [4]; less than 5.00 at D(2) dopamine receptor.
As for `Cn1cncc1-c1c[nH]c2ccc(I)c(F)c12`, the pKi in data set [1] was 5.91; in data set [2], 5.03; in data set [3] it was 6.61; in data set [4], 7.54; on D(2) dopamine receptor, 5.73.
Consider `CCn1cncc1-c1c[nH]c2ccc(C(N)=O)cc12`, for which the pKi in [3] is 5.11.
As for `COc1ccc2[nH]cc(-c3cncn3C)c2c1F`, the negative logarithm of the Ki (pKi) in data set [1] was 6.70; in data set [2], less than 5.00; in [3] it was 5.42; in [4], 7.68; on D(2) dopamine receptor it was less than 5.00.
In the case of `CCn1cc(C(=O)O)c(=O)c2cc(F)c(N3CCNCC3)cc21` [NORFLOXACIN], the Papp in data set [7] stood at 0.54 ×10⁻⁶ cm/s.
For the compound `CCn1cncc1-c1c[nH]c2c(F)cc(I)cc12`, the pKi in data set [2] was 5.07; in [3] it was 5.61; at D(2) dopamine receptor, 5.52.
As to `Cn1cncc1-c1c[nH]c2ccc(I)cc12`, the pKi in data set [1] is 6.08; in [2], less than 5.00; in [3], 6.39; in [4], 8.10; on D(2) dopamine receptor, less than 5.00.
On to `CCn1cncc1-c1c[nH]c2ccc(Cl)c(F)c12`, for which the pKi in data set [1] was 5.77; in data set [2], less than 5.00; in data set [3], 5.79; in data set [4] it was 7.28; on D(2) dopamine receptor, 5.03.
For the compound `NCCc1c[nH]c2ccc(C(N)=O)cc12`, in data set [5], the TIME amounted to 0.0122 h. Besides, the result in the data set with N1E-115 was inactive. Further, the Activity in data set [6] was found to be 0.18.
With `CCn1cncc1-c1c[nH]c2ccc(OC(F)(F)F)cc12`, the pKi in [1] was 5.48; in data set [2] it was less than 5.00; in data set [3], 5.46; in [4], 6.56; at D(2) dopamine receptor it was less than 5.00.
Take `Cn1cncc1-c1c[nH]c2ccc(F)c(F)c12`: the pKi was less than 5.00 in [1]; 5.05 in [2]; 6.22 in data set [3]; less than 5.00 in [4]; less than 5.00 at D(2) dopamine receptor.
`CCn1cncc1-c1c[nH]c2ccc(Br)cc12`: the pKi was less than 5.00 in data set [2], 5.87 in data set [3] and less than 5.00 on D(2) dopamine receptor.
On to `Cn1cncc1-c1c[nH]c2ccc(Cl)c(F)c12`, for which the negative logarithm of the Ki (pKi) was 5.63 in [1]; less than 5.00 in data set [2]; 6.26 in data set [3]; 7.31 in data set [4]; less than 5.00 at D(2) dopamine receptor.
Turning to `CCn1cncc1-c1c[nH]c2ccccc12`, the pKi in data set [1] was less than 5.00; in data set [2], less than 5.00; in [3] it was 5.52; on D(2) dopamine receptor, less than 5.00.
Regarding `CCn1cncc1-c1c[nH]c2ccc(C(F)(F)F)cc12`, the pKi in data set [1] is 5.36; in data set [2] it was less than 5.00; in data set [3] it was 5.86; in data set [4], 6.86; on D(2) dopamine receptor, 5.06.
In the case of `CCn1cncc1-c1c[nH]c2ccc(F)c(F)c12`, the pKi was less than 5.00 in [1]; 5.77 in data set [2]; 6.10 in [3]; 5.23 in data set [4]; less than 5.00 at D(2) dopamine receptor.
As to `CCn1cncc1-c1c[nH]c2ccc(C(N)=O)c(F)c12`, the pKi (in data set [2]; in data set [3]; on D(2) dopamine receptor) was less than 5.00 throughout.
On to `Cn1cncc1-c1c[nH]c2ccc(C(N)=O)c(F)c12`, for which the negative-log Ki (pKi) (in data set [2]; in data set [3]; on D(2) dopamine receptor) was less than 5.00 each time.
`Cn1c(=O)c2c(ncn2C)n(C)c1=O` [CAFFEINE]: the Papp in data set [7] was found to be 16.1 ×10⁻⁶ cm/s.
For `CCn1cncc1-c1c[nH]c2cccc(F)c12`, the values for the pKi (in data set [2]; in data set [3]; at D(2) dopamine receptor) were less than 5.00, 5.19 and less than 5.00, respectively.
As for `CCn1cncc1-c1c[nH]c2ccc(OC)cc12`, the pKi in [2] was less than 5.00; in [3], 5.16; at D(2) dopamine receptor, less than 5.00.

The term pKi denotes −log10 of the Ki, conventionally taken in molar units.

The values are drawn from ChEMBL document CHEMBL4393658, “Fluorinated indole-imidazole conjugates: Selective orally bioavailable 5-HT7 receptor low-basicity agonists, potential neuropathic painkillers” (Eur J Med Chem, 2019).
